Tests used:
[1] = target: T1, IRAK1 (His-TEV-IRAK1 (194-712)) (Homo sapiens, UniProt P51617); test: IRAK1 enzymatic assay; format: biochemical; details: human recombinant His-TEV-IRAK1, ATP 1 μM, 3 hours at 30° C., FlashPlate
T1 construct: His-TEV-IRAK1 (194-712); His (N); TEV cleavage site (N)
Method: IRAK1 Enzymatic Assay IRAK1 is a human purified recombinant enzyme (His-TEV-IRAK1 (194-712)). In this assay, IRAK-1 hydrolyses ATP and autophosphorylates. Measurement of IRAK-1 inhibition was performed in streptavidin coated 384 well FlashPlate (PerkinElmer #SM[…]). His-TEV-IRAK-1 (15 ng/well), ATP (1 μ[…]]ATP 0.25 μCi/well) and compounds in DMSO (range of concentrations from 20 μM to 1 nM) or controls (2% DMSO) were incubated for 3 hours at 30° C. in assay buffer: Hepes pH7.0 50 mM, Fatty acid-free BSA 0.1%, Dithiothreitol DTT 2 mM, MgCl2 10 mM, EGTA 0.5 mM, Triton-X-100 0.01%. Kinase reaction was stopped by addition of EDTA. Supernatant was discarded, plates were washed three times with 150 mM NaCl and radioactivity was then measured in a Microbeta Trilux reader.

IRAK4 (His-TEV-IRAK4) = target: T2, IRAK4 (His-TEV-IRAK4) (Homo sapiens, UniProt Q9NWZ3); test: IRAK4 enzymatic assay; format: biochemical; details: human recombinant His-TEV-IRAK4, ATP 2 μM, STK1-biotin peptide 300 nM, 3 hours at 30° C., FlashPlate
T2 construct: His (N); TEV cleavage site (N)
T2 sequence (Q9NWZ3 1-460): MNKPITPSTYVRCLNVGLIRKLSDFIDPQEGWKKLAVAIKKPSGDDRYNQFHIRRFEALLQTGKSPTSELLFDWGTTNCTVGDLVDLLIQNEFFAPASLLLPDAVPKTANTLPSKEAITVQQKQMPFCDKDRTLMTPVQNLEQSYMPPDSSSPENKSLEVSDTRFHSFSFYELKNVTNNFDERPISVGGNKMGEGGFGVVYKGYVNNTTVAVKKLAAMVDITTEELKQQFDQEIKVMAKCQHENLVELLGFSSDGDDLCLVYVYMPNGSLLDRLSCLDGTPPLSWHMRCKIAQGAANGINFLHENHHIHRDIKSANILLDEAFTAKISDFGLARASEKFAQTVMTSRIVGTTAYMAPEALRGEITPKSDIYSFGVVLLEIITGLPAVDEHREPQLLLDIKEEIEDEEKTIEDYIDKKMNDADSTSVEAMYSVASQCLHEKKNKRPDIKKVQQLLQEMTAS
Method: IRAK4 Enzymatic Assay IRAK4 is a human purified recombinant enzyme (His-TEV-[…] (194-712). IRAK4 hydrolyses ATP, autophosphorylates and phosphorylates a Serine/Threonine generic peptidic substrate (STK: 61 ST1BLC from CisBio International based in Bagnols/Cèze FR). Measurement of IRAK-4 inhibition was performed in streptavidin coated 384 well FlashPlate (PerkinElmer #SM[…]). His-TEV-IRAK4 (20 ng/well), ATP (2 μM, [^33P]ATP 0.25 μCi/well), STK1-biotin peptide (300 nM) and compounds in DMSO (range of concentrations from 20 μM to 1 nM) or controls (2% DMSO) were incubated for 3 hours at 30° C. in assay buffer: Hepes pH7.0 50 mM, Fatty acid-free BSA 0.1%, Dithiothreitol DTT 2 mM, MgCl2 10 mM, EGTA 0.5 mM, Tween-20 0.01%, MnCl2 5 mM. Kinase reaction was stopped by addition of EDTA. Supernatant was discarded, plates were washed three times with 150 mM NaCl and radioactivity was then measured in a Microbeta Trilux reader.

T1 sequence (P51617 194-712): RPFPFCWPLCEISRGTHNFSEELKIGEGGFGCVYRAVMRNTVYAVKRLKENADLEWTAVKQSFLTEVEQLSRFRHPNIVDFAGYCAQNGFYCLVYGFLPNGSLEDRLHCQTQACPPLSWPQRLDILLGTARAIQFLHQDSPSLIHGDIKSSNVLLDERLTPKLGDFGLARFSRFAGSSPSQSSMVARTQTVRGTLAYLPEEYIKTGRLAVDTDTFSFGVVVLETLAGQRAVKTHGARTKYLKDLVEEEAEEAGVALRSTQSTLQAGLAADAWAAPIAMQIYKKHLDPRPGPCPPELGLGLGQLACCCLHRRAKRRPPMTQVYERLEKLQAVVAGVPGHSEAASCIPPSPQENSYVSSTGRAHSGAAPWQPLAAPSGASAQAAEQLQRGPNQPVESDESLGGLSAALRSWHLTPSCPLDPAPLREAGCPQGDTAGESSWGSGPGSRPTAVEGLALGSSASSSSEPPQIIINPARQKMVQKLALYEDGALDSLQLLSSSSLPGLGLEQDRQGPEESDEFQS

Row | Structure (SMILES) | IC50 [1] [µM] | IC50 (IRAK4 (His-TEV-IRAK4)) [µM]
1 | Cn1cc(-c2cccc(-c3ncc(-c4cnn(CCNC(=O)OC(C)(C)C)c4)cn3)c2)cn1 [Compound 6, [2-(4-{2-[3-(1-Methyl-1H-pyrazol-4-yl)-phenyl]-pyrimidin-5-yl}-pyrazol-1-yl)-ethyl]-carbamic acid tert-butyl ester] | 0.1 to 1 | 0.1 to 1
2 | Cn1cc(-c2cccc(-c3ncc(-c4cnn(C5CCCN(C(=O)OC(C)(C)C)C5)c4)cn3)c2)cn1 (stereo not shown) [Compound 7, 3-(4-{2-[3-(1-Methyl-1H-pyrazol-4-yl)-phenyl]-pyrimidin-5-yl}-pyrazol-1-yl)-piperidine-1-carboxylic acid tert-butyl ester] | 0.1 to 1 | 0.1 to 1
3 | C=CC(=O)NCCn1cc(-c2cnc(-c3cccc(-c4cnn(C)c4)c3)nc2)cn1 [Compound 13, N-[2-(4-{2-[3-(1-Methyl-1H-pyrazol-4-yl)-phenyl]-pyrimidin-5-yl}-pyrazol-1-yl)-ethyl]-acrylamide] | 0.1 to 1 | 0.1 to 1
4 | C=CS(=O)(=O)NCCn1cc(-c2cnc(-c3cccc(-c4cnn(C)c4)c3)nc2)cn1 [Compound 16, Ethenesulfonic acid [2-(4-{2-[3-(1-methyl-1H-pyrazol-4-yl)-phenyl]-pyrimidin-5-yl}-pyrazol-1-yl)-ethyl]-amide] | 0.1 to 1 | 0.1 to 1
5 | Cn1cc(-c2cccc(-c3ncc(-c4cnn([C@H]5C[C@@H]6CC[C@@H](N6)C5F)c4)cn3)c2)cn1 (stereo partly shown) [Compound 19, 2-Fluoro-3-(4-{2-[3-(1-methyl-1H-pyrazol-4-yl)-phenyl]-pyrimidin-5-yl}-pyrazol-1-yl)-8-aza-bicyclo[3.2.1]octane] | < 0.1 | < 0.1
6 | CN1[C@H]2CC[C@@H]1C(F)[C@@H](n1cc(-c3cnc(-c4cccc(-c5cnn(C)c5)c4)nc3)cn1)C2 (stereo partly shown) [Compound 20, 2-Fluoro-8-methyl-3-(4-{2-[3-(1-methyl-1H-pyrazol-4-yl)-phenyl]-pyrimidin-5-yl}-pyrazol-1-yl)-8-aza-bicyclo[3.2.1]octane] | 0.1 to 1 | 0.1 to 1
7 | COCC1CNCCC1n1cc(-c2cnc(-c3cccc(-c4cnn(C)c4)c3)nc2)cn1 (stereo not shown) [Compound 29, 5-[1-(3-Methoxymethyl-piperidin-4-yl)-1H-pyrazol-4-yl]-2-[3-(1-methyl-1H-pyrazol-4-yl)-phenyl]-pyrimidine] | 1 to 20 | 0.1 to 1
8 | O[C@H]1CC[C@H](n2cc(-c3cnc(-c4cccc(-c5cnn(CCN6CCOCC6)c5)c4)nc3)cn2)CC1 [Compound 30, (1r,4r)-4-[4-(2-{3-[1-(2-Morpholin-4-yl-ethyl)-1H-pyrazol-4-yl]-phenyl}-pyrimidin-5-yl)-pyrazol-1-yl]-cyclohexanol] | 1 to 20 | 0.1 to 1
9 | O[C@H]1CC[C@H](n2cc(-c3cnc(-c4cccc(-c5cnn(C6CCNCC6)c5)c4)nc3)cn2)CC1 [Compound 32, 4-(4-{2-[3-(1-Piperidin-4-yl-1H-pyrazol-4-yl)-phenyl]-pyrimidin-5-yl}-pyrazol-1-yl)-cyclohexanol] | 1 to 20 | 0.1 to 1

Now from value to compound:

Row | IC50 [1] [µM] | IC50 (IRAK4 (His-TEV-IRAK4)) [µM] | Structure (SMILES)
10 | 0.1 to 1 | < 0.1 | CC(=O)N1CCC(n2cc(-c3cnc(-c4cccc(-c5cnn(C)c5)c4)nc3)cn2)C(CO)C1 (mixture of isomers) [Compound 22, 1-[3-Hydroxymethyl-4-(4-{2-[3-(1-methyl-1H-pyrazol-4-yl)-phenyl]-pyrimidin-5-yl}-pyrazol-1-yl)-piperidin-1-yl]-ethanone]
11 | 0.1 to 1 | 0.1 to 1 | Cn1cc(-c2cccc(-c3ncc(-c4cnn([C@H]5CCC[C@H](N6CCOCC6)C5)c4)cn3)c2)cn1 (relative stereo) [Compound 5, 4-[Trans-3-(4-{2-[3-(1-Methyl-1H-pyrazol-4-yl)-phenyl]-pyrimidin-5-yl}-pyrazol-1-yl)-cyclohexyl]-morpholine]
12 | 0.1 to 1 | < 0.1 | Cn1cc(-c2cccc(-c3ncc(-c4cnn(C5CCCC(O)(CO)C5)c4)cn3)c2)cn1 (stereo not shown) [Compound 1, 1-Hydroxymethyl-3-(4-{2-[3-(1-methyl-1H-pyrazol-4-yl)-phenyl]-pyrimidin-5-yl}-pyrazol-1-yl)-cyclohexanol]
13 | 0.1 to 1 | 0.1 to 1 | Cn1cc(-c2cccc(-c3ncc(-c4cnn(C5CCN(C(=O)OC(C)(C)C)CC5)c4)cn3)c2)cn1 [Compound 8, 4-(4-{2-[3-(1-Methyl-1H-pyrazol-4-yl)-phenyl]-pyrimidin-5-yl}-pyrazol-1-yl)-piperidine-1-carboxylic acid tert-butyl ester]
14 | 0.1 to 1 | < 0.1 | Cn1cc(-c2cccc(-c3ncc(-c4cnn(C5CCCNC(=O)C5)c4)cn3)c2)cn1 (stereo not shown) [Compound 23, 4-(4-{2-[3-(1-Methyl-1H-pyrazol-4-yl)-phenyl]-pyrimidin-5-yl}-pyrazol-1-yl)-azepan-2-one]
15 | 0.1 to 1 | < 0.1 | CN1CCCC(n2cc(-c3cnc(-c4cccc(-c5cnn(C)c5)c4)nc3)cn2)CC1=O (stereo not shown) [Compound 24, 1-Methyl-4-(4-{2-[3-(1-methyl-1H-pyrazol-4-yl)-phenyl]-pyrimidin-5-yl}-pyrazol-1-yl)-azepan-2-one]
16 | 0.1 to 1 | < 0.1 | Cn1cc(-c2cccc(-c3ncc(-c4cnn(C5CCCC(N6CCCC(F)(F)C6)C5)c4)cn3)c2)cn1 (stereo not shown) [Compound 25, 5-{1-[3-(3,3-Difluoro-piperidin-1-yl)-cyclohexyl]-1H-pyrazol-4-yl}-2-[3-(1-methyl-1H-pyrazol-4-yl)-phenyl]-pyrimidine]
17 | 0.1 to 1 | < 0.1 | Cn1cc(-c2cccc(-c3ncc(-c4cnn([C@H]5CC[C@]6(CCC(=O)N6CCO)CC5)c4)cn3)c2)cn1 [Compound 31, 1-(2-Hydroxy-ethyl)-8-(4-{2-[3-(1-methyl-1H-pyrazol-4-yl)-phenyl]-pyrimidin-5-yl}-pyrazol-1-yl)-1-aza-spiro[4.5]decan-2-one]
18 | 0.1 to 1 | 0.1 to 1 | CC1COCCC1N1CCC[C@H](n2cc(-c3cnc(-c4cccc(-c5cnn(C)c5)c4)nc3)cn2)C1 (stereo partly drawn) [Compound 39, 2-[3-(1-Methyl-1H-pyrazol-4-yl)-phenyl]-5-{1-[(S)-1-(3-methyl-tetrahydro-pyran-4-yl)-piperidin-3-yl]-1H-pyrazol-4-yl}-pyrimidine]
19 | 0.1 to 1 | 0.1 to 1 | CC1COCCC1N1CCC[C@@H](n2cc(-c3cnc(-c4cccc(-c5cnn(C)c5)c4)nc3)cn2)C1 (stereo partly drawn) [Compound 40, 2-[3-(1-Methyl-1H-pyrazol-4-yl)-phenyl]-5-{1-[(R)-1-(3-methyl-tetrahydro-pyran-4-yl)-piperidin-3-yl]-1H-pyrazol-4-yl}-pyrimidine]
20 | 1 to 20 | 0.1 to 1 | Cn1cc(-c2cccc(-c3ncc(-c4cnn(C5CCC(C(=O)O)C5)c4)cn3)c2)cn1 (stereo not shown) [Compound 42, 3-(4-{2-[3-(1-Methyl-1H-pyrazol-4-yl)-phenyl]-pyrimidin-5-yl}-pyrazol-1-yl)-cyclopentanecarboxylic acid]
21 | – | < 0.1 | Cn1ccc(-c2cccc(-c3ncc(-c4cnn([C@H]5CC[C@]6(CCC(=O)N6C)CC5)c4)cn3)c2)n1 [Compound 44, 1-Methyl-8-(4-{2-[3-(1-methyl-1H-pyrazol-3-yl)-phenyl]-pyrimidin-5-yl}-pyrazol-1-yl)-1-aza-spiro[4.5]decan-2-one]
22 | 0.1 to 1 | 0.1 to 1 | CN(C)C/C=C/C(=O)N1CCC(n2cc(-c3cnc(-c4cccc(-c5cnn(C)c5)c4)nc3)cn2)CC1 [Compound 47, (E)-4-Dimethylamino-1-[4-(4-{2-[3-(1-methyl-1H-pyrazol-4-yl)-phenyl]-pyrimidin-5-yl}-pyrazol-1-yl)-piperidin-1-yl]-but-2-en-1-one]

Reference: US10314841B2, “Substituted pyrazoles as IRAK inhibitors” (Merck Patent GmbH, priority 2014, dated 2019)
